From PMC6934184, “Selective DNA-PKcs inhibition extends the therapeutic index of localized radiotherapy and chemotherapy” (The Journal of Clinical Investigation, 2019)

Biological target: T1, JAK2 JH1 JH2 (Homo sapiens, UniProt O60674)
T1 construct: JAK2 JH1 JH2; purchased Thermo Fisher Scientific (Life Technologies) SelectScreen
Experiment: SelectScreen Z'LYTE
Format: biochemical
How it was run: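 SelectScreen broad panel; activity (Z'LYTE, Adapta) plus binding formats. ATP: Km app for CSF1R Z'LYTE; 10 for CAMK1 Adapta. Readout = % per kinase.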

T1 sequence (O60674 532-1132 limits assumed): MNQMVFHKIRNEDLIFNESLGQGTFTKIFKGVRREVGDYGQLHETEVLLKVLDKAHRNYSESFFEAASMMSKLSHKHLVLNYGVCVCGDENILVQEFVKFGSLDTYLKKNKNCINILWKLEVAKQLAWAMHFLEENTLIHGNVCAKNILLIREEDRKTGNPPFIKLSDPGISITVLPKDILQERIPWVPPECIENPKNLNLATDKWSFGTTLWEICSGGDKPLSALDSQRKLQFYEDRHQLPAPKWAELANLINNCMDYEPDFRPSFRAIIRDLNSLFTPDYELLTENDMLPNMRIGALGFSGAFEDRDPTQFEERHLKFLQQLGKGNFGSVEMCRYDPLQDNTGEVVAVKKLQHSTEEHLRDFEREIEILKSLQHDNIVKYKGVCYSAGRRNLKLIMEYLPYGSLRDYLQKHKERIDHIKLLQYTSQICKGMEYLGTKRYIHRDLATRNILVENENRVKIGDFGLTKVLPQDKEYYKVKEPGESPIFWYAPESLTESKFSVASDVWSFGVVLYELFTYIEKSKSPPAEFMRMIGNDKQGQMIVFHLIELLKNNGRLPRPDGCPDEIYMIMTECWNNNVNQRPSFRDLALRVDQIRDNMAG

Which inhibition at 1 µM does the source give for `CN(C(=O)CN1CCOCC1)c1ccc2sc3c(-c4cccc5c(=O)cc(N6CC7CCC(C6)O7)oc45)cccc3c2c1` [NU5455] here?
Its inhibition at 1 µM is -6.7%.
